Where two headings read alike, the source gives them in different places.

The nature of data set [1]: Pharmacokinetic evaluation after single intravenous and gavage administration. The note with it: mouse, in vivo, CD-1 mice, IV:1 PO:5 mg/kg. As for the experimental part:
Assay method: Mix a test compound with a mixture of 5% DMSO, 60% polyethylene glycol (PEG400) and 35% water, vortex and sonicate to prepare a clear solution of 0.2 mg/mL. Filter the solution through a microporous filter membrane for later use. Select the male CD-1 mice weighing 25 to 35 g, and administer a candidate compound solution to them via intravenous injection at a dosage of 1 mg/kg. After fasting, administer the candidate compound solution to them orally at a dosage of 5 mg/kg. After the administration to the animals, collect 25 µL of blood at 0.083, 0.25, 0.5, 1, 2, 4, 8, 12, and 24 hours, and place the blood in commercially available anticoagulant tubes pre-filled with EDTA-K2. Centrifuge the tubes for 10 minutes to separate the plasma, and store them at -60 °C. Determine the content of the target compound in the plasma samples by LC/MS/MS, and calculate the pharmacokinetic parameters using Phoenix WinNonlin software (Pharsight, USA).
Definition of each parameter: IV: intravenous injection; PO: oral administration; C0: instantaneous required concentration after intravenous injection; Cmax: peak plasma concentration after administration; Tmax: time required to reach the peak drug concentration after administration; T1/2: time required for plasma concentration to decrease by half; Vdss: apparent volume of distribution, which refers to the ratio constant between the amount of drug in the body and the plasma concentration when the drug reaches dynamic equilibrium in the body; Cl: clearance, which refers to the apparent volume of distribution of a drug cleared from the body per unit time; Tlast: time of the last test point; AUC0-last: area under the plasma concentration-time curve, which refers to the area enclosed by the plasma concentration curve on the time axis; F: a measure of the speed and extent to which a drug is absorbed into the blood circulation, which is an important indicator for evaluating the degree of drug absorption.
The purpose of this assay was to evaluate the pharmacokinetic behaviors after a single intravenous bolus and gavage administration of a compound, to investigate the bioavailability after the gavage administration, and to provide animal experimental data for clinical research.
CD-1 mice (male, 7 to 9 weeks old)
The pharmacokinetic characteristics of the compounds after intravenous and oral administration were assayed in rodents using a standard protocol. In the assay, a candidate compound was prepared into a clear solution and administered to mice via single intravenous and oral administration. The solvent for both intravenous and oral administration was a mixed solvent prepared with 5% DMSO, 60% PEG400, and 35% water. Four female CD-1 mice were used in this project. Two mice were administered intravenously, and plasma samples were collected at 0.083, 0.25, 0.5, 1, 2, 4, 8 and 24 h after the administration. The other two mice were administered orally via gavage, and plasma samples were collected at 0.25, 0.5, 1, 2, 4, 8 and 24 h after the administration. The plasma samples were […] at 4 °C and 3,200 × g for 10 min, and the supernatants were separated to give plasma samples. 20 times the volume of methanol solution containing internal standard was added to precipitate the proteins. After centrifugation at 12,000 × g for 15 min at 4 °C, 50 µL of the supernatant was taken and transferred to a 96-well plate, and centrifuged a second time, and the resulting supernatant was injected for analysis. The plasma concentration was quantitatively analyzed by LC-MS/MS method, and the pharmacokinetic parameters such as peak concentration (Cmax), clearance (CL), half-life (T1/2), […] (Vdss), area under the plasma concentration-time curve (AUC0-last), and bioavailability (F) were calculated.

A further data set deals with T1, hERG potassium channels (Homo sapiens, UniProt Q12809).
T1 construct: expressed in transfected cells; host or cells: CHO-hERG
T1 sequence (Q12809 whole entry): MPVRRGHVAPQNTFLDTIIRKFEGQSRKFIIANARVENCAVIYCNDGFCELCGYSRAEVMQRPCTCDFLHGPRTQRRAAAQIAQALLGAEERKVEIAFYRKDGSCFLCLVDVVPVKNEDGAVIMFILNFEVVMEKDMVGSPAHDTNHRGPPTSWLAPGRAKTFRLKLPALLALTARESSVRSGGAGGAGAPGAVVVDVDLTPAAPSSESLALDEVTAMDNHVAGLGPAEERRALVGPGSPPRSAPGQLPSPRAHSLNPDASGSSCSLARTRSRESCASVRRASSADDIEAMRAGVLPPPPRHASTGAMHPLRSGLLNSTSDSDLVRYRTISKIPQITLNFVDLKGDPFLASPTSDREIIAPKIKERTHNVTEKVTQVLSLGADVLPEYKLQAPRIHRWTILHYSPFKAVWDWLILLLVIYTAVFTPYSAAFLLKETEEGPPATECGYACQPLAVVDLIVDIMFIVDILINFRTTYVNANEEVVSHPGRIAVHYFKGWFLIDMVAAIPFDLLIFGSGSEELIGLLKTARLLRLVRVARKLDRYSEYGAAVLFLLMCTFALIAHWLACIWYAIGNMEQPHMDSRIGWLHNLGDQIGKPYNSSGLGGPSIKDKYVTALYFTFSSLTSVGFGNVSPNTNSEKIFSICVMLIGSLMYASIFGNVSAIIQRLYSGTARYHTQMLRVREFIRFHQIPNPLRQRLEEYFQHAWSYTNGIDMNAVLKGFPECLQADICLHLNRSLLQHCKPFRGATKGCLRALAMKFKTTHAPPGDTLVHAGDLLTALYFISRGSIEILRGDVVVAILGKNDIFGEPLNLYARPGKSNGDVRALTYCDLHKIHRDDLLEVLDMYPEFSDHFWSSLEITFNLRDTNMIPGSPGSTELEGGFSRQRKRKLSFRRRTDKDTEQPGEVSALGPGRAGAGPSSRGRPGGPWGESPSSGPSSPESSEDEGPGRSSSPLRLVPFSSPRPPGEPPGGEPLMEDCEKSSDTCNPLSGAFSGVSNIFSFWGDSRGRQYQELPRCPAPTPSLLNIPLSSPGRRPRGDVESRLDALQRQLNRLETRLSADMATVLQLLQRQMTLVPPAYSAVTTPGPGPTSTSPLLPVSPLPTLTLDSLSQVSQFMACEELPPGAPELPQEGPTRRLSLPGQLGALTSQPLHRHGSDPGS
The experiment in a line: Automated patch-clamp (Qpatch) assay on CHO-hERG cells. The class given is cell-based. Here is the method: CHO-hERG cells were cultured in a 175 cm^2 culture flask. When cells grew to a density of 60 to 80%, the culture medium was removed. Cells were washed once with 7 mL of PBS (Phosphate Buffered Saline), and then 3 mL of cell dissociation reagent was added for digestion. After the digestion was completed, 7 mL of culture medium was added for neutralization, and then the mixture was centrifuged. The supernatant was aspirated, and then 5 mL of culture medium was added to resuspend the cells and ensure that the cell density was 2~5×10^6/mL.
The compound stock solution was diluted with DMSO. 10 µL of compound stock solution was added to 20 µL of DMSO solution, followed by 3-fold serial dilution to obtain 6 DMSO concentrations. 4 µL of the compound solution at each of the six DMSO concentrations was added to 396 µL of extracellular solution to achieve a 100-fold dilution to obtain six intermediate concentrations. Then, 80 µL of the compound solution at each of the six intermediate concentrations was added to 320 µL of extracellular solution to achieve a 5-fold dilution to the desired final test concentrations. […]
The electrophysiological process was recorded. […] This voltage stimulation was applied every 15 seconds, and recorded for 2 minutes. The extracellular solution was then given, and recorded for 5 minutes. […]
Assay data were analyzed by GraphPad Prism 5.0 software. […]

Data set [2] can be described thus: Pharmacokinetic evaluation after single intravenous and gavage administration. The note with it: mouse, in vivo, CD-1 mice, IV:0.5 PO:2 mg/kg.
The mark [3] stands for this setting: read-out: Area under the plasma concentration-time curve AUC0-last PO.
Setting [4] is: read-out: Half-life T1/2 (IV) (converted).
The mark [5] stands for this setting: read-out: Peak concentration Cmax.
The mark [6] stands for this setting: read-out: Tissue distribution Vdss.

For `CC(C)(C)CC(=O)Nc1nc2c(F)cc(C#N)cn2c1-c1ccc(OC(F)(F)F)cc1` [Compound 1], in data set [1] (setting [3]), the AUC(0-t) worked out at 1.41 µM·h. In addition, in data set [1] (read-out: Bioavailability F), the bioavailability came to 51.1%. Moreover, the clearance in data set [1] (read-out: Clearance CL) is 67.8 mL/min/kg. Besides, in data set [1] (setting [4]), the half-life was 52.8 min. In data set [1] (setting [5]), the Cmax was 355 nM. Moreover, the Vd in data set [1] (setting [6]) is 4.89 L/kg. Moreover, at hERG potassium channels, the IC50 was over 40 µM.
For `CC(C)(C)CC(=O)Nc1nc2c(F)cc(C#N)cn2c1C1=CCCC1` [Compound 3], the IC50 at hERG potassium channels (CHO-hERG cells, highest test concentration 40.00 µM, read-out: IC50) was over 40 µM. Also, in data set [2] (setting [3]), the AUC(0-t) worked out at 2.35 µM·h. The bioavailability in data set [2] (read-out: Bioavailability F) was 57.3%. In addition, the clearance in data set [2] (read-out: Clearance CL) is 25.6 mL/min/kg. Besides, the half-life in data set [2] (setting [4]) is 30 min. Further, the Cmax in data set [2] (setting [5]) worked out at 1150 nM. The Vd in data set [2] (setting [6]) was 0.94 L/kg.

These data come from EP4786454A1, “HETEROARYL DERIVATIVE AND USE THEREOF” (priority 2023, dated 2025).
